Reference: patent US20260151413A1, “ANTICANCER DRUG CONJUGATES” (Ariel Scientific Innovations Ltd., priority 2022, published 2026)
Entries after “also recorded” stand apart in the source; their conditions may differ. Read-outs that look alike come from different tables or passages of the source.

What was measured:
[1] = system: OCI-AML3, KG-1a, Granta, Jeko-1 and BV-173 cells; assay: Apoptosis assay (Muse AnnexinV and Dead Cell kit); type: cell-based; conditions: 50-250 nM depending on cell line, 48 hours, compared to the parental drug
Experimental: Cells were analyzed using the multifunctional Muse®AnnexinV and Dead Cell kit (Luminex/Millipore, Austin, Texas, USA). Cells were treated with indicated concentrations of Doxorubizen, the corresponding parent drug, or with DMSO. After 48 hours of incubation cells were harvested, washed twice in PBS, and 2×10^5 cells were stained with 100 μl of Muse AnnexinV and Dead Cell Reagent. Samples were incubated for 20 min at room temperature in the dark. Cells were analyzed by the Muse®CellAnalyzer system (Millipore, Billerica, MA, USA), and the percentage of apoptosis was determined using Guava software (Luminex/Millipore, USA, version 3.3).
(§1) Chimera 9 was evaluated for its biological impact on mitochondrial function and cell death. To that end, the inventor treated the following cell lines OCI-AML3 (100 nM), KG-1a (100 nM), Granta (250 nM), Jeko-1 (50 nM) and BV-173 (50 nM) with doxorubicin or chimera 9.

GRANTA = assay: WST-1 proliferation assay, GRANTA; type: cell-based; conditions: WST-1, 48 hours of treatment
Experimental: (§2) Albert Pinhasov (Ariel University, Ariel, Israel). […] Granta cells were kindly provided by Prof.
(§3) Table 3 [resents the calculated IC50 values (μM) for each chimera in different hematological malignancies cell-lines. The proliferation rate was measured by WST-1 assay after 48 hours of treatment. The result shown for each concentration point represents the […]

MUTZ5 = assay: WST-1 proliferation assay, MUTZ5; type: cell-based, human; conditions: Homo sapiens; WST-1, 48 hours of treatment
Experimental: as §2, §3

BV-173 cells = assay: DNA damage by dual staining of pH2A.X and pATM; type: cell-based; conditions: 50 nM, 3 hours, compared to the parental drug
Experimental: BV-173 cells (2×10^5 cells/well) were treated with DMSO, Doxorubicin or Doxorubizen. After incubation for 3 hours, phosphorylation level of ATM and H2AX was measured by Muse cell analyzer using Muse Multi-Color DNA Damage Kit (Luminex Corporation, Part number: MCH200107) according to manufacturer's instructions. Phosphorylation levels were determined using Guava software (Luminex/Millipore, USA, version 3.3).
BV-173 cells were exposed to 50 nM chimera 9 or the non-conjugated drug Doxorubicin, and DNA damage was analyzed after 3 hours by using dual staining of phospho-Histone H2A.X (Ser139) and phospho-ATM (Ser1981) antibodies.

[2] = system: OCI-AML3, KG-1a, Granta, Jeko-1 and BV-173 cells; assay: Mitochondrial depolarization (Muse Mitochondrial Kit); type: cell-based; conditions: 50-250 nM depending on cell line, 48 hours, compared to the parental drug
Experimental: Changes in mitochondrial potential and cellular plasma membrane permeabilization, were determined with the Muse® Mitochondrial Kit (Luminex, USA). Briefly, Cells were treated with DMSO or the relevant chimera for 48 hours. The cells were incubated with MitoPotential working solution for 20 minutes at 37° C. in 5% CO2. Then, 5 μL Muse® MitoPotential 7-ADD reagent were added and the cells were incubated for 5 minutes at room temperature. The percentage of four cell populations: live (mitopotential+/7−AAD−), depolarized live (mitopotential−/7−AAD−), dead (mitopotential+/7−AAD+), and depolarized dead (mitopotential−/7−AAD+) were measured using the Muse® Cell Analyzer (Luminex, USA).
as §1

Rec-1 = assay: WST-1 proliferation assay, Rec-1; type: cell-based, human; conditions: Homo sapiens, Rec1; WST-1, 48 hours of treatment
Experimental: as §2, §3

DND41 = assay: WST-1 proliferation assay, DND41; type: cell-based, human; conditions: Homo sapiens, DND41; WST-1, 48 hours of treatment
Experimental: as §2, §3

[3] = system: triple negative breast cancer (TNBC) MDA 231 cells; conditions: for weight maintenance, survival and tumor growth suppression compared with doxorubicin: ip administration
Experimental: Five-week-old athymic Nude-Foxn 1nu male mice (ENVIGO Labs, Nes Ziona, Israel) were subcutaneously inoculated on the dorsal left side with […] (1×10^6 cell) into nu/nu mice, 0.2 mL per mouse) and tumors allowed to establish over time. When tumor volume reached 100 mm^3, Doxorubicin (Dox) and Doxorubizen (Chimera 9) were administered intraperitoneally (ip). Animals were removed from an experiment if either of the following conditions were fulfilled: reduction of 20% or more body weight; tumor volume>0.55 cm^3. The tumor dimensions were measured using a Vernier caliper and the volume was calculated according to the equation: Volume (mm^3) ¼ length×width×width×½ three times per week. The in vivo experiments were approved by the Animal Ethics Committee (Authorization number IL-179-06-19).
Chimera 9 was also evaluated for its effect on breast cancer model. For this evaluation, […] nude female (6-8 weeks) mice (groups 1, 2, two mice per group, groups 3, 4, 5 three mice per group) were inoculated with triple negative breast cancer (TNBC) MDA 231 cells. Group 1 was used as the control for tumor growth. After 10 days, mice were […] (ip) administered with Doxorubicin (groups 2 and 4) and Chimera 9 (Doxorubizen) (groups 3 and 5) in the following regime: ip administration of 2.5 mg/kg Doxorubicin once per week (group 2) and three sequential days per week (group 4); ip administration of 3.5 mg/kg chimera 9 once per week (group 3) and three sequential days per week (group 5). Overall experiment carried out for 5 weeks and 4 days, when the tumor volumes for all the groups were monitored. Tumors were then resected and measured.

JEKO-1 = assay: WST-1 proliferation assay, JEKO-1; type: cell-based, human; conditions: Homo sapiens, JeKo-1; WST-1, 48 hours of treatment
Experimental: as §2, §3

OCI-AML3 = assay: WST-1 proliferation assay, OCI-AML3; type: cell-based; conditions: Homo sapiens, OCI-AML-3; WST-1, 48 hours of treatment
Experimental: as §2, §3

[4] = system: aggressive papillary thyroid cancer cells; assay: Proliferation of aggressive papillary thyroid cancer cells; type: cell-based; conditions: 10 nM and 100 nM, with respect to DMSO control
Experimental: Chimera 9 (also referred to herein as Doxorubizen) was evaluated in two different concentrations (10 nM and 100 nM) on aggressive papillary thyroid cancer and with respect to the parent anticancer drug Doxorubicin.

[5] = Group 5: ip 3.5 mg/kg, three sequential days per week

SMILES: COC(=O)N(C)/N=N/c1ccc(CNC2CC(OC3CC(O)(C(=O)CO)Cc4c(O)c5c(c(O)c43)C(=O)c3c(OC)cccc3C5=O)OC(C)C2O)cc1 (centres unmarked) [Chimera 9, (E)-methyl-3-(4-(((3-hydroxy-2-methyl-6-((3,5,12-trihydroxy-3-(2-hydroxyacetyl)-10-methoxy-6,11-dioxo-1,2,3,4,6,11-hexahydrotetracen-1-yl)oxy)tetrahydro-2H-pyran-4-yl)amino)methyl)phenyl)-1-methyltriaz-2-ene-1-carboxylate]
- rate of apoptosis [1]: substantial increase in the rate of apoptosis
- IC50 (GRANTA): 2.59 µM
- IC50 (MUTZ5): 0.52 µM
- DNA damage: co-activation of pH2A.X and pATM (BV-173 cells): significant co-activation of pH2A.X and pATM
- mitochondrial membrane potential [2]: significantly collapsed mitochondrial membrane potential
- IC50 (Rec-1): 0.52 µM
- IC50 (DND41): 0.64 µM
- outcome compared to Group 2 (Doxorubicin once per week) ([3]; Group 3: ip 3.5 mg/kg once per week): no statistical significance
- body weight [3, 5]: didn't lose weight
- toxicity vs doxorubicin [3, 5]: reduced toxicity
- tumor volume [3, 5]: even reduced
- survival ([3]; Group 5: ip 3.5 mg/kg, three sequential days per week, 3.5 mg/kg): full survival; also recorded: survived until the end of the experiment
- weight maintenance, survival and tumor growth suppression compared with doxorubicin [3]: markedly superior
- weight maintenance, survival and tumor growth suppression compared with doxorubicin ([3]; listed as Doxorubizen): profoundly superior
- IC50 (JEKO-1): 0.85 µM
- IC50 (OCI-AML3): 1.24 µM
- proliferation of thyroid cancer cells [4]: reduce significantly the proliferation
